This is an account of results in US12052991B2, “Substituted pyridinyloxybenzenes and salts thereof and use thereof as herbicidal agents” (Bayer Aktiengesellschaft, priority 2018, dated 2024).

Molecules are shown by their SMILES.

Type in all cases: in vivo
Series [1] relates to Diplotaxis tenuifolia (DIPTE). In words: Herbicidal early post-emergence action (Table A5). Conditions: 1900 g/ha; scored visually 9 to 12 days after treatment; 100% = plants have died, 0% = like control plants. As for the experimental part: (§1) Seeds of monocotyledonous and dicotyledonous weed plants were placed in 96-well microtiter plates in quartz sand and grown in a climatized chamber under controlled growth conditions. 5 to 7 days after sowing, the test plants were treated at the cotyledon stage. The compounds according to the invention, formulated in the form of emulsion concentrates (EC), were applied with a water application rate of the equivalent of 2200 liters per hectare. After the test plants had been left to stand in the climatized chamber for 9 to 12 days under optimum growth conditions, the effect of the preparations was scored visually in comparison to untreated controls. For example, 100% activity=the plants have died, 0% activity=like control plants. Tables A1 to A8 below show the effects of selected compounds of the general formula (I) according to Table 1 on various harmful plants and an application rate corresponding to 1900 g/ha, which were obtained by the experimental procedure mentioned above.

For series [2], the system named is harmful plants AGSTE, DIPTE, LOLPE, MATCH, POAAN, SETVI, STEME and VERPE. In words: Herbicidal early post-emergence action, summary of Tables A1-A8. The following applies: application rate of 1900 g of active ingredient per hectare; summary in words. In short, it runs like this: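 Weeds in quartz sand in microtiter plates were treated at cotyledon stage, 5–7 days after sowing, with EC-formulated compounds at 1900 g/ha in 2200 L/ha water. Activity scored visually against untreated controls after 9–12 days in a climate chamber (100% = dead, 0% = like control).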

For series [3], the system named is Agrostis tenuis (AGSTE). In words: Herbicidal early post-emergence action (Table A1). The following applies: 1900 g/ha; scored visually 9 to 12 days after treatment; 100% = plants have died, 0% = like control plants. In outline: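 Weeds sown in quartz sand in microtiter plates and treated at cotyledon stage, 5-7 days after sowing, with EC-formulated compound at 1900 g/ha in 2200 L/ha water. Damage scored visually 9-12 days later against untreated controls (0% = as control, 100% = dead).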

Series [4] deals with Stellaria media (STEME). In words: Herbicidal early post-emergence action (Table A7). Conditions: 1900 g/ha; scored visually 9 to 12 days after treatment; 100% = plants have died, 0% = like control plants. As to the method: as §1
Series [5] relates to Setaria viridis (SETVI). As to the kind of experiment: Herbicidal early post-emergence action (Table A4). Conditions: 1900 g/ha; scored visually 9 to 12 days after treatment; 100% = plants have died, 0% = like control plants. As to the method:
as §1

The test system of series [6] is Matricaria chamonilla (MATCH). In words: Herbicidal early post-emergence action (Table A6). The following applies: 1900 g/ha; scored visually 9 to 12 days after treatment; 100% = plants have died, 0% = like control plants. As for the experimental part:
as §1

In series [7] the test system is Poa annua (POAAN). In words: Herbicidal early post-emergence action (Table A3). Conditions: 1900 g/ha; scored visually 9 to 12 days after treatment; 100% = plants have died, 0% = like control plants. As to the method: as §1
Series [8] has as its system Lolium perenne (LOLPE). In words: Herbicidal early post-emergence action (Table A2). Conditions: 1900 g/ha; scored visually 9 to 12 days after treatment; 100% = plants have died, 0% = like control plants. As to the method:
as §1

Series [9] concerns Veronica persica (VERPE). In words: Herbicidal early post-emergence action (Table A8). Conditions: 1900 g/ha; scored visually 9 to 12 days after treatment; 100% = plants have died, 0% = like control plants. As to the method: as §1
In series [10] the test system is corn (ZEAMX, var. Aventura). As to the kind of experiment: Pre-emergence crop plant compatibility (Table E1). Conditions: dosage 80 g/ha, scored after about 3 weeks, 0% = like control plants. The source says: (§2) Seeds of monocotyledonous and dicotyledonous crop plants were placed in plastic or organic plant pots and covered with soil. The compounds of the invention, formulated in the form of wettable powders (WP) or as emulsion concentrates (EC), were then applied to the surface of the covering soil as aqueous suspension or emulsion with addition of 0.5% additive at a water application rate equivalent to 600 l/ha (converted). After the treatment, the pots were placed in a greenhouse and kept under good growth conditions for the test plants. After about 3 weeks, the effect of the preparations was scored visually in comparison with untreated controls as percentages. For example, 100% activity=the plants have died, 0% activity=like control plants.

The test system of series [11] is wheat (TRZAS, var. Triso). As to the kind of experiment: Pre-emergence crop plant compatibility (Table E1). Conditions: dosage 80 g/ha, scored after about 3 weeks, 0% = like control plants.
Text: as §2

Series [12] deals with soybean (GLXMA, var. Sultana). In words: Pre-emergence crop plant compatibility (Table E1). The following applies: dosage 80 g/ha, scored after about 3 weeks, 0% = like control plants.
Text: as §2

Turning to `Fc1cccc(Oc2ncc(C(F)(F)F)cc2Cl)c1-c1cc(C(F)(F)F)on1` [Example 1-5], the “Early post-emergence effect against Diplotaxis tenuifolia (DIPTE)” value (shortened to “Early post-emergence effect … (DIPTE)”) in series [1] is on record as 80%. Besides, in series [2], the “herbicidal activity against the harmful plants of Tables A1-A8 in early post-emergence treatment” value (“herbicidal activity” for short) is reported as “very good herbicidal activity”.
In the case of `Fc1cccc(Oc2ccccn2)c1-c1cc(C(F)F)on1` [Example 1-8], the “Early post-emergence effect against Agrostis tenuis (AGSTE)” value (from here on “Early post-emergence effect … (AGSTE)”) in series [3] came out at 80%. The “Early post-emergence effect … (DIPTE)” value in series [1] was found to be 80%. For the same compound, the “herbicidal activity” value in series [2] is listed as “very good herbicidal activity”.
With `Fc1cccnc1Oc1cccc(F)c1-c1cc(C(F)F)on1` [Example 1-14], in [1], the “Early post-emergence effect … (DIPTE)” value worked out at 80%. Also, the “herbicidal activity” value in series [2] is listed as “very good herbicidal activity”.
`Cn1nc(C(F)F)cc1-c1cc(F)ccc1Oc1ccc(Cl)cn1` [Example 1-32]: the “Early post-emergence effect … (AGSTE)” value in series [3] stood at 80%. Further, the “Early post-emergence effect … (DIPTE)” value in [1] is listed as 80%. Also, the “herbicidal activity” value in [2] was “very good herbicidal activity”.
For `FC(F)(F)c1cccc(-c2ccccc2Oc2ccc(Cl)cn2)n1` [Example 1-49], the “Early post-emergence effect against Stellaria media (STEME)” value in [4] is listed as 80%. Also, the “herbicidal activity” value in series [2] is “very good herbicidal activity”. Besides, the “Early post-emergence effect against Setaria viridis (SETVI)” value in [5] is 100%.
As to `Cc1ccc(Oc2ccccc2-c2cccc(C(F)(F)F)n2)nc1` [Example 1-51], in [6], the “Early post-emergence effect against Matricaria chamonilla (MATCH)” value (shortened to “Early post-emergence effect … (MATCH)”) is listed as 80%. In addition, in series [2], the “herbicidal activity” value is on record as “very good herbicidal activity”.
As for `Cc1cc(C)c(-c2cc(C(F)F)no2)c(Oc2ccc(Cl)cn2)c1` [Example 1-78], the “Early post-emergence effect against Poa annua (POAAN)” value (from here on “Early post-emergence effect … (POAAN)”) in series [7] came out at 100%. For the same compound, the “Early post-emergence effect … (AGSTE)” value in series [3] is recorded as 100%. In addition, the “herbicidal activity” value in [2] is “very good herbicidal activity”. The “Early post-emergence effect against Lolium perenne (LOLPE)” value in [8] is recorded as 80%.
Consider `Cn1nc(-c2c(F)cccc2Oc2ncccc2F)cc1C(F)F` [Example 1-84], for which the “herbicidal activity” value in [2] was “very good herbicidal activity”. Also, the “Early post-emergence effect against Veronica persica (VERPE)” value in series [9] is listed as 80%.
Regarding `Cc1cc(F)c(-c2cc(C(F)F)no2)c(Oc2ccc(Cl)cn2)c1` [Example 1-88], the “Early post-emergence effect … (POAAN)” value in series [7] is 100%. The “Early post-emergence effect … (AGSTE)” value in series [3] was determined as 100%. The “herbicidal activity” value in series [2] is “very good herbicidal activity”. Also, the “Early post-emergence effect against Setaria viridis (SETVI)” value in series [5] is recorded as 80%.
As to `Cc1cc(-c2ccccc2Oc2ccc(Cl)cn2)ncn1` [Example 1-108], the “Early post-emergence effect … (POAAN)” value in [7] amounted to 80%. Besides, the “Early post-emergence effect … (AGSTE)” value in series [3] is 80%. Also, the “Early post-emergence effect … (MATCH)” value in series [6] is listed as 80%. For the same compound, the “herbicidal activity” value in series [2] is recorded as “very good herbicidal activity”.
For the compound `Cc1cc(-c2ccccc2Oc2ncc(Cl)cc2F)ncn1` [Example 1-109], the “Early post-emergence effect … (POAAN)” value in series [7] is recorded as 100%. For the same compound, the “Early post-emergence effect … (AGSTE)” value in series [3] worked out at 80%. The “Early post-emergence effect … (DIPTE)” value in [1] turned out to be 80%. The “herbicidal activity” value in series [2] was “very good herbicidal activity”.
`Fc1cc(Cl)cnc1Oc1ccccc1-c1cc(C(F)(F)F)no1` [Example 1-112]: the “Early post-emergence effect … (POAAN)” value in [7] worked out at 100%. Also, the “Early post-emergence effect … (AGSTE)” value in [3] amounted to 100%. Also, the “Early post-emergence effect … (MATCH)” value in series [6] is on record as 80%. Besides, the “herbicidal activity” value in series [2] is recorded as “very good herbicidal activity”.
Turning to `FC(F)(F)c1cc(-c2ccccc2Oc2ccc(Cl)cn2)on1` [Example 1-113], the “Early post-emergence effect … (POAAN)” value in series [7] came to 100%. In series [3], the “Early post-emergence effect … (AGSTE)” value is 100%. Besides, in series [6], the “Early post-emergence effect … (MATCH)” value came out at 80%. The “herbicidal activity” value in [2] is reported as “very good herbicidal activity”.
As for `FC(F)c1cc(-c2ccccc2Oc2ncc(Cl)cn2)on1` [US 2016/ 333000 No. 53], in series [10], the “Crop plant compatibility in pre-emergence, ZEAMX (damage to corn)” value was determined as 50%. In addition, the “Crop plant compatibility in pre-emergence, TRZAS (damage to wheat)” value in [11] is on record as 20%. Further, the “Crop plant compatibility in pre-emergence, GLXMA (damage to soybean)” value in series [12] came out at 80%.
The corresponding values for `Fc1cccc(Oc2ncc(Cl)cn2)c1-c1cc(C(F)F)no1` [US 2016/ 333000 No. 144] are 30%, 70% and 100%.
